Measured values taken from patent publication US20240408085A1, “COMPOUND FOR DEGRADATION OF BCL-2 FAMILY PROTEINS AND MEDICAL APPLICATION THEREOF” (XIZANG HAISCO PHARMACEUTICAL CO., LTD., priority 2021, published 2024).

Legend:
BCL-xL proteins = target: T1, BCL-xL proteins (Homo sapiens, UniProt Q07817); assay: BCL-xL degradation activity in MOLT-4 cells (western blot, 16 h); assay type: cell-based
T1 construct: degradation effect on the BCL-xL proteins in MOLT-4 cells; host or cells: MOLT-4
Description: MOLT-4 cells are acute lymphoblastic leukemia cell lines in humans. The cells were purchased from ATCC. Culture conditions: RPMI-1640+10% FBS+1% penicillin-streptomycin solution. The cells were cultured in a 37° C., 5% CO2 incubator. The cells were plated in a 12-well plate, with 2×10^5 cells/well. After plating, compounds at different concentrations were added and cultured in a 37° C., 5% CO2 incubator for 16 h. After the completion of culture, the cells were harvested and RIPA lysis buffer (beyotime, Cat. P0013B) was added. The cells were lysed on ice for 15 minutes and centrifuged at 12000 rpm at 4° C. for 10 minutes. The supernatant protein samples were collected and the protein was quantified by using the BCA kit (Beyotime, Cat. P0009). Then the protein was diluted to 0.8 mg/mL. The expressions of BCL-xL (CST, Cat. 2764S), BCL-2 (CST, Cat. 15071S) and the internal reference β-actin (CST, Cat. 3700S) were detected using a fully automated western blot quantitative analyzer (Proteinsimple). The expression level of BCL-xL or BCL-2 relative to the internal reference was calculated by using Compass software, and the DC50 value was calculated by using GraphPad Prism 8.0 software according to formula (1), wherein the Proteinadministration denoted the relative expression level of BCL-xL or BCL-2 in administration groups at different doses, and the Proteinvehicle denoted the relative expression level of BCL-xL or BCL-2 in the vehicle control group.
Protein %=Proteinadministration/Proteinvehicle×100% formula (1)

platelet (PLT) = assay: Effect on platelet (PLT) after single intravenous injection; assay type: in vivo, SD rats
Description: Experimental animal: 78 SD rats, with an equal number of males and females, male (♂): 290-380 g, female (♀): 220-290 g, 8-10 weeks old, purchased from Zhejiang Vital River Laboratory Animal Technology Co., Ltd.
Experimental protocol: a clear solution was formulated using a vehicle ([…]). The animals were dosed via tail vein a single time (administration volume: 20 mL/kg; bolus injection period: about 4 minutes; recovery period: 7 days).

MOLT-4 cells = assay: Cell proliferation activity in MOLT-4 cells (72 h, cell viability luminescence); assay type: cell-based, human; conditions: Homo sapiens, read-out: IC50 for the inhibition of MOLT-4 cell proliferation
Outline: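 Human acute lymphoblastic leukemia cells were seeded at 5×10^3 cells/well in RPMI-1640 with 10% FBS. They were treated with serially varied compound concentrations for 72 h at 37° C., 5% CO2. A luminescent viability reagent was used for read-out. IC50 was derived relative to vehicle control; maximum inhibition was the inhibition rate at the highest concentration.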

T1 sequence (Q07817 whole entry): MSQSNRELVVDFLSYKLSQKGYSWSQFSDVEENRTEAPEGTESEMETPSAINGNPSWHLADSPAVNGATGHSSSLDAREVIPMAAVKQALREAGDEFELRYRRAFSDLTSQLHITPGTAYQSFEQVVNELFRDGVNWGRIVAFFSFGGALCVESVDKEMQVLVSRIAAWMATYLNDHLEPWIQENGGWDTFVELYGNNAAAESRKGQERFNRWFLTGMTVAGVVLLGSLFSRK

Row | SMILES | DC50 (BCL-xL proteins) [nM] | IC50 (MOLT-4 cells) [nM] | other results
1 | Cc1ncsc1-c1ccc([C@H](C)NC(=O)[C@@H]2C[C@@H](O)CN2C(=O)[C@@H](NC(=O)CCCCCC(=O)N2CCN(CC[C@H](CSc3ccccc3)Nc3ccc(S(=O)(=O)NC(=O)c4ccc(N5CCN(CC6=C(c7ccc(Cl)cc7)CCC(C)(C)C6)CC5)cc4)cc3S(=O)(=O)C(F)(F)F)CC2)C(C)(C)C)cc1 [Control compound, DT2216, reference compound] | > 20 | – | Effect on PLT (↓ decrease) (platelet (PLT); SD rats ♀, 6 mg/kg single i.v., 4 h): ↓24%; Effect on PLT (↓ decrease) (platelet (PLT); SD rats ♀, 6 mg/kg single i.v., D2): ↓78%; Effect on PLT (↓ decrease) (platelet (PLT); SD rats ♀, 20 mg/kg single i.v., 4 h): ↓89%; Effect on PLT (↓ decrease) (platelet (PLT); SD rats ♀, 20 mg/kg single i.v., D2): ↓96%; Effect on PLT (↓ decrease) (platelet (PLT); SD rats ♀, 60 mg/kg single i.v., D8): ↓87%; Effect on PLT (↓ decrease) (platelet (PLT); SD rats ♂, 6 mg/kg single i.v., 4 h): ↓26%; Effect on PLT (↓ decrease) (platelet (PLT); SD rats ♂, 6 mg/kg single i.v., D2): ↓69%; Effect on PLT (↓ decrease) (platelet (PLT); SD rats ♂, 20 mg/kg single i.v., 4 h): ↓81%; Effect on PLT (↓ decrease) (platelet (PLT); SD rats ♂, 20 mg/kg single i.v., D2): ↓91%; Effect on PLT (↓ decrease) (platelet (PLT); SD rats ♂, 60 mg/kg single i.v., D8): ↓73%
2 | Cc1ncsc1-c1ccc([C@H](C)NC(=O)[C@@H]2C[C@@H](O)CN2C(=O)[C@@H](NC(=O)CCCCCC(=O)N2CCN(CC[C@H](CSc3ccccc3)Nc3ccc(S(=O)(=O)NC(=O)c4ccc(N5CCN(CC6=C(c7ccc(Cl)cc7)CCC7(CC7)C6)CC5)cc4)cc3S(=O)(=O)C(F)(F)F)CC2)C(C)(C)C)cc1 [Compound 11, (2S,4R)-1-((S)-2-(7-(4-((R)-3-((4-(N-(4-(4-((6-(4-chlorophenyl)spiro[2.5]oct-5-en-5-yl)methyl)piperazin-1-yl)benzoyl)sulfamoyl)-2-((trifluoromethyl)sulfonyl)phenyl)amino)-4-(phenylthio)butyl)piperazin-1-yl)-7-oxoheptanamido)-3,3-dimethylbutanoyl)-4-hydroxy-N—((S)-1-(4-(4-methylthiazol-5-yl)phenyl)ethyl)pyrrolidine-2-carboxamide] | 5.3 | < 500 | –
3 | Cc1ncsc1-c1ccc([C@H](C)NC(=O)[C@@H]2C[C@@H](O)CN2C(=O)[C@@H](NC(=O)CCCCCC(=O)N2C[C@H]3C[C@@H]2CN3CC[C@H](CSc2ccccc2)Nc2ccc(S(=O)(=O)NC(=O)c3ccc(N4CCN(CC5=C(c6ccc(Cl)cc6)CCC6(CC6)C5)CC4)cc3)cc2S(=O)(=O)C(F)(F)F)C(C)(C)C)cc1 [Compound 19, (2S,4R)-1-((S)-2-(7-((1R,4R)-5-((R)-3-((4-(N-(4-(4-((6-(4-chlorophenyl)spiro[2.5]oct-5-en-5-yl)methyl)piperazin-1-yl)benzoyl)sulfamoyl)-2-((trifluoromethyl)sulfonyl)phenyl)amino)-4-(phenylthio)butyl)-2,5-diazabicyclo[2.2.1]heptan-2-yl)-7-oxoheptanamido)-3,3-dimethylbutanoyl)-4-hydroxy-N—((S)-1-(4-(4-methylthiazol-5-yl)phenyl)ethyl)pyrrolidine-2-carboxamide] | 10.7 | < 500 | –
4 | Cc1ncsc1-c1ccc([C@H](C)NC(=O)[C@@H]2C[C@@H](O)CN2C(=O)[C@@H](NC(=O)CCCCCC(=O)N2C[C@H]3CN(CC[C@H](CSc4ccccc4)Nc4ccc(S(=O)(=O)NC(=O)c5ccc(N6CCN(CC7=C(c8ccc(Cl)cc8)CCC(C)(C)C7)CC6)cc5)cc4S(=O)(=O)C(F)(F)F)C[C@H]3C2)C(C)(C)C)cc1 [Compound 8, cis-(2S,4R)-1-((2S)-2-(7-(5-((R)-3-((4-(N-(4-(4-((4′-chloro-4,4-dimethyl-3,4,5,6-tetrahydro-[1,1′-biphenyl]-2-yl)methyl)piperazin-1-yl)benzoyl)sulfamoyl)-2-((trifluoromethyl)sulfonyl)phenyl)amino)-4-(phenylthio)butyl)hexahydropyrrolo[3,4-c]pyrrol-2(1H)-yl)-7-oxoheptanamido)-3,3-dimethylbutanoyl)-4-hydroxy-N—((S)-1-(4-(4-methylthiazol-5-yl)phenyl)ethyl)pyrrolidine-2-carboxamide] | 8.8 | < 500 | –

Now those with a lower DC50 (BCL-xL proteins), led by results:

Row | DC50 (BCL-xL proteins) [nM] | IC50 (MOLT-4 cells) [nM] | SMILES | other results
5 | 3.6 | < 500 | Cc1ncsc1-c1ccc([C@H](C)NC(=O)[C@@H]2C[C@@H](O)CN2C(=O)[C@@H](NC(=O)CCCC(=O)N2C[C@H]3CN(CC[C@H](CSc4ccccc4)Nc4ccc(S(=O)(=O)NC(=O)c5ccc(N6CCN(CC7=C(c8ccc(Cl)cc8)CCC(C)(C)C7)CC6)cc5)cc4S(=O)(=O)C(F)(F)F)C[C@H]3C2)C(C)(C)C)cc1 [Compound 15, cis-(2S,4R)-1-((S)-2-(5-(5-((R)-3-((4-(N-(4-(4-((4′-chloro-4,4-dimethyl-3,4,5,6-tetrahydro-[1,1′-biphenyl]-2-yl)methyl)piperazin-1-yl)benzoyl)sulfamoyl)-2-((trifluoromethyl)sulfonyl)phenyl)amino)-4-(phenylthio)butyl)hexahydropyrrolo[3,4-c]pyrrol-2(1H)-yl)-5-oxopentanamido)-3,3-dimethylbutanoyl)-4-hydroxy-N—((S)-1-(4-(4-methylthiazol-5-yl)phenyl)ethyl)pyrrolidine-2-carboxamide] | –
6 | 3.7 | < 500 | Cc1ncsc1-c1ccc([C@H](C)NC(=O)[C@@H]2C[C@@H](O)CN2C(=O)[C@@H](NC(=O)CCCCCC(=O)N2C[C@H]3C[C@@H]2CN3CC[C@H](CSc2ccccc2)Nc2ccc(S(=O)(=O)NC(=O)c3ccc(N4CCN(CC5=C(c6ccc(Cl)cc6)CCC(C)(C)C5)CC4)cc3)cc2S(=O)(=O)C(F)(F)F)C(C)(C)C)cc1 [Compound 10, (2S,4R)-1-((S)-2-(7-((1R,4R)-5-((R)-3-((4-(N-(4-(4-((4′-chloro-4,4-dimethyl-3,4,5,6-tetrahydro-[1,1′-biphenyl]-2-yl)methyl)piperazin-1-yl)benzoyl)sulfamoyl)-2-((trifluoromethyl)sulfonyl)phenyl)amino)-4-(phenylthio)butyl)-2,5-diazabicyclo[2.2.1]heptan-2-yl)-7-oxoheptanamido)-3,3-dimethylbutanoyl)-4-hydroxy-N—((S)-1-(4-(4-methylthiazol-5-yl)phenyl)ethyl)pyrrolidine-2-carboxamide] | –
